# Legend:
# H358 lung cancer cells = test: [3H]-thymidine incorporation DNA synthesis assay; assay type: cell-based; details: for inhibition of DNA synthesis, single agent (FIG. 25): 1, 10 or 50 μM for 12 hours
# Method: (§1) (A) Structures of 1a, and the acetylated side chain of a lysine residue within the polypeptide chain of a protein targeted by the acetylating enzyme (R1 and R2 are the main chain elements on both sides of the lysyl residue). (B) [^3H]-thymidine incorporation into DNA of H358 cells pulsed for 6 hrs at three different time points after the addition of increasing concentrations of 1a, i.e., at 6-12 hrs (12 hr curve), at 18-24 hours (24 hr curve), or at 42-48 hrs (48 hr curve). Incorporation is represented as a percentage relative to control (untreated) cells. (C) Cell cycle analysis of propidium iodide-stained cells harvested at various times after addition of 50 μM 1a. % of cells in G1, S, and G2 represents the average of two independent profiles. (D) Western analysis of histone H3 lysine 9 acetylation, histone H3 lysine 56 acetylation, histone H3 lysine 9 methylation, and total histone H3, before “c” or at the indicated times after addition of 50 μM 1a. Each lane represents 60 μg cellular protein.
# Control cells were left untreated. […] Control cells were left untreated.
# Cells were either labeled immediately before treatment (starting DNA synthesis rate), or subjected to the indicated treatments and then pulsed on successive days until day 4. DNA synthesis is represented as the percent of starting DNA synthesis rate. Viability was determined for each treatment condition 24 hours post-start of treatment by the trypan blue exclusion assay, with percentages of viable cells indicated to the right of the graph.
# H358 cells (2,000/well) in 96-well plates were treated with 1, 10 or 50 μM of spd-1a, spd-2a, spd-3a, spm3, or spm2 for 12 hours. Triplicate wells of cells were pulsed 6 hours with 0.5 μCi [^3H]-thymidine (NEN, Boston Mass.) post-start of drug treatment, and harvested onto filter paper using a Brandel Harvester and subjected to scintillation counting. Untreated cells were pulsed 0-6 hrs to establish the initial rate of incorporation.
# Cells were plated in 96-well plates (2000 cells per well to insure conditions for exponential growth for untreated cells over the time course of the experiment) and exposed to the following treatments: 1a (50 μM); camptothecin (Sigma, St Louis, Mo. 5 nM, 18 hours); cisplatin (Platinol, obtained through local pharmacies, 2 μM, 1 hour 15 minutes), 5-fluorouracil (5FU, Adrucil™, obtained through local pharmacies, 2 μM, 1 hour 15 minutes), Taxotere (provided by the late Dr. Pierre Potier, 5 nM, 18 hours). UVC treatment (40 J/m^2) using a Stratalinker™, Stratagene, La Jolla, Calif.) was carried using medium lacking phenol red. At 0-6 hr, 18-24 hr (day 1), 42-48 hr […], 66-72 hr (day 3), and 90-96 hr (day 4) post-start of treatment, triplicate wells were incubated with 0.5 μCi [^3H]-thymidine (NEN, Boston Mass.), harvested onto filter paper, and subjected to scintillation counting. Trypan blue exclusion assays for cell membrane integrity were carried out as known in the art.
# The present inventors used [^3H]-thymidine incorporation assays to examine DNA synthesis in H358 lung cancer cells in the presence of varying concentrations of 1a. Cells were pulsed for 6 hours with [^3H]-thymidine at three different time points after the addition of 1a (i.e., at 6-12 hours, at 18-24 hours, and at 42-48 hours). The incorporation of [^3H]-thymidine into DNA decreased with increasing concentrations of 1a at all three time points, with the maximal effect occurring with the 6-12 hour pulse (FIG. 2B).
# We then used [^3H]-thymidine incorporation assays to examine DNA synthesis in H358 lung cancer cells in the presence of 1a alone, or together with an 18 hour exposure to the DNA damaging drug, camptothecin (CPT), a plant alkaloid from which an important class of topoisomerase I-targeted chemotherapeutic agents (Hycamtin [topotecan] and Camptosar [irinotecan]) has been derived (Garcia-Carbonero, et al, 2002, Clin Cancer Res 8: 641-61). […]
# [1] = system: histone H3 lysine 9 acetylation in H358 cells; test: Western analysis of histone H3 lysine 9 acetylation/methylation; assay type: cell-based; details: for suppression of histone H3K9 acetylation: 50 μM, 12 hours post start of treatment
# Method: as §1
# Each lane represents 175 μg cell lysate protein.
# One 6 cm culture dish of H358 cells per treatment was used. Cells were treated with 50 μM spm-2, spm-3, or spd-3a for 12 hours. Histones were extracted from cells in 0.2M H2SO4 (as described in Furuta, T., et al (2003) J. Biol. Chem. 278: 20303-20312), followed by SDS-PAGE and Western blotting. Blots were probed with anti-acetyl histone H3-lysine 9 (Upstate Biotechnology, Inc.)
# Cells were lysed by adding 1 mL of 0.2 M H2SO4. Histones were recovered as described in reference. SDS-PAGE/Western analysis was carried out as previously described using rabbit monoclonal antibody to total histone H3, rabbit polyclonal anti-trimethyl histone H3 (lysine 9), and anti-acetyl histone H3 (lysine 9). All antibodies were purchased from Upstate Biotechnology Inc. (Lake Placid, N.Y.).
# In FIG. 2D, we carried out an immunoblot analysis of total histone H3, histone H3 acetylated on lysine 9 (H3-K9Ac), histone H3 acetylated on lysine 56 (H3-K56Ac) and histone H3 methylated on lysine 9 (H3-MeK9) in H358 cells, before treatment, and after 1, 12, 18, and 24 hours of treatment with 50 μM 1a. […] Acetylation levels are restored by 24 hours.
# One 10-cm plate of H358 lung cancer cells (about 2×10^6 cells), grown in DMEM+10% Fetal bovine serum as described in reference, were treated for 24 hours with 50 μM1a inhibitor. Cells lysates were prepared as we have previously described (Lee C, et al., 2005, Cancer Res 65:9834-9842). Treated cells and untreated (control) cells were harvested by lysing in buffer containing 10 mM Hepes pH 7.5, 100 mM NaCl, 300 mM sucrose, 3 mM MgCl2, 1 mM EDTA, 1 mM DTT, 0.5% Triton X-100, 1 mM PMSF, protease inhibitor pellet (Roche) and analyzed on 10% SDS-PAGE gels, followed by Western immunoblot analysis of total histone H3, methylated histone H3 (methylated on lysine 9), and acetylated histone H3 (acetylated on lysine 9). […] Histone H3 methylation was not affected.
smiles,measurement,setting,value
"CC(C)(COP(=O)(O)OP(=O)(O)OC[C@H]1O[C@@H](n2cnc3c(N)ncnc32)[C@H](O)[C@@H]1OP(=O)(O)O)[C@@H](O)C(=O)NCCC(=O)NCCSCC(=O)NCCCNCCCCN [1a, spermidine[N1]-CoA]","sensitization to cisplatin (CDDP), UVC irradiation and 5-FU in DNA synthesis assay","H358 lung cancer cells; 50 μM 1a + cisplatin 2 μM, UVC 40 J/m2 or 5FU 2 μM",sensitized
same,activity at 50 µM,"H358 lung cancer cells; Homo sapiens, NCI-H358, 50 μM 1a + 5 nM camptothecin (18 h), 48 hours post-initiation, read-out: [3H]-thymidine incorporation, % of control incorporation",< 20%
same,IC50,"H358 lung cancer cells; Homo sapiens, NCI-H358, 6-12 hour [3H]-thymidine pulse, read-out: IC50 for inhibition of DNA synthesis",50 to 100 µM
same,effect on histone H3 lysine 9 methylation,[1]; 50 μM 1a,no effect
same,histone H3 lysine 9 acetyl groups lost,"[1]; 50 μM 1a, within 1 hour",over 50%
same,histone H3 lysine 9 acetyl groups lost,"[1]; 50 μM 1a, within 12 hours",~98%
same,histone H3 K9 acetyl groups lost,"[1]; Example 1: 50 μM 1a, 24 hours, cell lysate",over 80%
CC(=O)NCCSCC(=O)NCCCNCCCCN [3a],"inhibition of DNA synthesis, single agent (FIG. 25)",H358 lung cancer cells,inhibit DNA synthesis
same,suppression of DNA synthesis in combination with camptothecin,"H358 lung cancer cells; 3a + CPT 5 nM 18 hours, pulse from 42 hours",effective
same,suppression of histone H3K9 acetylation,[1],nearly complete ablation of histone H3K9 acetylation
same,suppression of histone H3K9 acetylation,[1]; listed as spd-3a,suppress histone acetylation
CC[C@@]1(O)C(=O)OCc2c1cc1n(c2=O)Cc2cc3ccccc3nc2-1 [camptothecin],"effect on [3H]-thymidine incorporation, single agent","H358 lung cancer cells; 1a 50 μM, camptothecin 5 nM (18 or 24 h)",no detectable effect
CC(=O)NCCSCC(=O)NCCCNCCCCNCCCN [spm-3],"inhibition of DNA synthesis, single agent (FIG. 25)",H358 lung cancer cells,inhibit DNA synthesis
same,suppression of histone H3K9 acetylation,[1],suppress histone acetylation

# — patent US9107879B1, “Methods of increasing the cytotoxicity of chemotherapeutic agents with multisubstrate inhibitors of histone, protein-lys, polyamine acetylation, and polyamine metabolism” (Vanderbilt University, priority 2010, dated 2015)
